From ChEMBL document CHEMBL1795328, “Synthesis of novel triplet drugs with 1,3,5-trioxazatriquinane skeletons and their pharmacologies. 1: Synthesis of triplet drugs with morphinan skeletons” (Bioorg Med Chem Lett, 2011) come the findings set out here.

For one assay, the species on record is Cavia porcellus. The assay can be described thus: Selectivity ratio of Ki for delta opioid receptor in guinea pig forebrain homogenates to Ki for mu opioid receptor in guinea pig forebrain homogenates. Format: tissue-based.
A short description of assay [1]: Displacement of [3H]-NTI from delta opioid receptor in guinea pig forebrain homogenates. Format: tissue-based, Cavia porcellus, Brain. On the technique in general: In a radioligand displacement assay an active substance lowers the binding of a labelled ligand.
In assay [2] the target is Kappa-type opioid receptor (Cavia porcellus, UniProt P41144). Description: Displacement of [3H]-U69593 from kappa opioid receptor in guinea pig cerebellum homogenates. It is filed as tissue-based.
Another assay concerns the target Mu-type opioid receptor (Cavia porcellus, UniProt P97266). The assay can be described thus: Displacement of [3H]-DAMGO from mu opioid receptor in guinea pig forebrain homogenates. It is filed as tissue-based, Brain.
Assay [3] concerns Mus musculus. The assay can be described thus: Antinociceptive activity in sc dosed mouse by acetic acid writhing test. Format: functional. Background: Writhing tests count abdominal constrictions after an irritant is injected.
Assay [4] concerns Mus musculus. Description: Ratio of morphine ED50 to compound ED50 for antinociceptive activity in sc dosed mouse by acetic acid writhing test. Format: functional.

Each structure is given as a SMILES string. pKi: −log10 of the molar value.

Sequence of Kappa-type opioid receptor (P41144 whole entry): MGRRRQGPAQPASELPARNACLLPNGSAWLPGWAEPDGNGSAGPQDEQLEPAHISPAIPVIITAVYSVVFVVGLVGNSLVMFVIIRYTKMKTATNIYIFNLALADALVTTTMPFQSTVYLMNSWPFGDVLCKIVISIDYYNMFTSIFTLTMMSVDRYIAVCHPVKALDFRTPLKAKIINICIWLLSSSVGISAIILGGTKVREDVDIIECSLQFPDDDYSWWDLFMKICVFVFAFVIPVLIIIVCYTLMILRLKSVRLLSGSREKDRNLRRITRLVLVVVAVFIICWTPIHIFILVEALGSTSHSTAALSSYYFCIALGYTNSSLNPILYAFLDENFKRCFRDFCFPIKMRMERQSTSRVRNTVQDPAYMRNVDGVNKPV
Sequence of Mu-type opioid receptor (P97266 whole entry): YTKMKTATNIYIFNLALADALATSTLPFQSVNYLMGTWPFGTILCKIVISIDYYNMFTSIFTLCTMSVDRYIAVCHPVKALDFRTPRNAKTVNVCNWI

The term pKi denotes the negative decadic logarithm of the Ki, by convention in mol/L. The low end stands for a high Ki, the high end for a low Ki. Consider `Oc1ccc2c3c1O[C@H]1[C@]4(CC[C@H]5[C@@H](C2)N(CC2CC2)CC[C@@]351)O[C@@H]1N2[C@H]4O[C@]3(CC[C@H]4[C@H]5Cc6ccc(O)c7c6[C@@]4(CCN5CC4CC4)[C@H]3O7)[C@@H]2O[C@]12CC[C@H]1[C@H]3Cc4ccc(O)c5c4[C@@]1(CCN3CC1CC1)[C@H]2O5`, for which the Ratio Ki in the assay filed under Cavia porcellus was 2.4. Also, the pKi in assay [1] is 7.27; in assay [2] it was 7.36; at Mu-type opioid receptor, 7.65.

In the case of `Oc1ccc2c3c1O[C@H]1[C@]4(CC[C@@]5(O)[C@@H](C2)N(CC2CC2)CC[C@]315)O[C@@H]1N2[C@H]4O[C@]3(CC[C@@]4(O)[C@H]5Cc6ccc(O)c7c6[C@@]4(CCN5CC4CC4)[C@H]3O7)[C@@H]2O[C@]12CC[C@@]1(O)[C@H]3Cc4ccc(O)c5c4[C@@]1(CCN3CC1CC1)[C@H]2O5`, the Ratio Ki in the assay filed under Cavia porcellus was 5.5. Also, the pKi was 6.91 in assay [1], 7.66 in assay [2] and 7.65 at Mu-type opioid receptor.

Broadly, the ED50 is the dose at which the effect has come halfway, by size or by number of responders. Low values mean an effect at a small dose, high ones a need for a large dose. On to `CN1CC[C@]23c4c5ccc(O)c4O[C@H]2[C@]2(CC[C@@]3(O)[C@H]1C5)O[C@@H]1N3[C@H]2O[C@]2(CC[C@@]4(O)[C@H]5Cc6ccc(O)c7c6[C@@]4(CCN5C)[C@H]2O7)[C@@H]3O[C@]12CC[C@@]1(O)[C@H]3Cc4ccc(O)c5c4[C@@]1(CCN3C)[C@H]2O5`, for which the Ratio Ki in the assay listed under Cavia porcellus was found to be 36.8. Also, the figures for the pKi (in assay [1]; in assay [2]; at Mu-type opioid receptor) were 7.41, 7.79 and 8.98, respectively. Further, in the assay with Mus musculus [3], the Activity result is “Dose-dependent effect”. Besides, in the assay on Mus musculus [3], the 50% effect level (ED50) was put at a dose of 0.037 mg/kg. Also, in the assay on Mus musculus [4], the “Ratio ED50” value is 16.

Take `CN1CC[C@]23c4c5ccc(O)c4O[C@H]2[C@]2(CC[C@@]3(O)[C@H]1C5)O[C@@H]1N3[C@H]2O[C@]2(CC[C@@]4(O)[C@H]5Cc6ccc(O)c7c6[C@@]4(CCN5CC4CC4)[C@H]2O7)[C@@H]3O[C@]12CC[C@@]1(O)[C@H]3Cc4ccc(O)c5c4[C@@]1(CCN3CC1CC1)[C@H]2O5`: the Ratio Ki in the assay listed under Cavia porcellus stood at 6.2. The pKi in assay [1] was 7.61; in assay [2] it was 8.00; on Mu-type opioid receptor, 8.40.

In assay [1], `O=C1CC[C@@]2(O)[C@H]3Cc4ccc(O)c5c4[C@@]2(CCN3CC2CC2)[C@H]1O5` [NALTREXONE] had a pKi of 7.68.

As for `CN1CC[C@]23c4c5ccc(O)c4O[C@H]2[C@]2(CC[C@@]3(O)[C@H]1C5)O[C@@H]1N3[C@H]2O[C@]2(CC[C@@]4(O)[C@H]5Cc6ccc(O)c7c6[C@@]4(CCN5CC4CC4)[C@H]2O7)[C@@H]3O[C@]12CC[C@@]1(O)[C@H]3Cc4ccc(O)c5c4[C@@]1(CCN3C)[C@H]2O5`, the Ratio Ki in the assay listed under Cavia porcellus amounted to 12.7. Also, the results for the pKi (in assay [1]; in assay [2]; at Mu-type opioid receptor) were 7.63, 7.96 and 8.73, respectively.
